Measured values from publication PMC5554220, “A Novel Aldosterone Antagonist Limits Renal Injury in 5/6 Nephrectomy” (Scientific Reports, 2017).

Key:
[1] = tested on: rats with 5/6 renal ablation (Nx); assay: Protocol 1 (early treatment), 5/6 renal ablation (Nx); format: in vivo, male Munich-Wistar rats
From the text: (§1) One-hundred forty-five adult male Munich-Wistar rats, obtained from a local facility at the Faculty of Medicine, University of São Paulo, weighing between 220 and 250 g, were used in this study. All experimental procedures were approved by the local Research Ethics Committee (Comissão de Ética para Análise de Projetos de Pesquisa do Hospital das Clínicas da Faculdade de Medicina da Universidade de São Paulo, CAPPesq, process n° 0905/09), and carried out following strictly our institutional guidelines and current international standards for manipulation and care of laboratory animals. Body weights and general conditions were assessed daily. Five-sixths renal ablation (Nx) was performed as a single-step procedure under anesthesia with ketamine 50 mg/kg and xylazine 10 mg/kg im. After ventral laparotomy, the right kidney was excised and two or three branches of the left renal artery were ligated, so as to promote infarction of two-thirds of the left kidney. The operation was invariably well tolerated. Sham-operated rats underwent anesthesia and manipulation of the renal pedicles without removal of renal mass. After surgery, rats received enrofloxacin and, upon recovery, had free access to tap water and regular rodent chow containing 0.5 Na and 22% protein (Nuvital Labs, Curitiba, Brazil), and were kept at 23 ± 1 °C and 60 ± 5% relative air humidity, under an artificial 12–12 hour light/dark cycle. Rats were then treated following two different experimental protocols (described later).
In this first protocol, Nx rats were divided into groups: NX + V (N = 8), receiving vehicle; NX + Eple (N = 8), receiving oral (mixed with the chow) Eple, 150 mg/kg/day; and Nx + Ly (N = 8), receiving oral Ly, 20 mg/kg/day. A group of sham-operated rats (S, N = 7) was also studied. Treatments were started 24 h after surgery. Rats were followed during 60 days, with determination of TCP and UalbV on Days 30 and 60. TCP was assessed with an optoelectronic automated device (Visitech Systems, Apex, NC), after rats had been preconditioned so as to remain calm during the procedure. UalbV was measured with a conventional immunodiffusion technique. On Day 60, rats were anesthetized as described before, and blood was collected from the abdominal aorta for determination of serum creatinine, serum K^+, PRA and PAC. The remnant kidney was then perfusion-fixed with Duboscq-Brazil solution after a brief washout with saline to remove blood from renal vessels, and prepared for histomorphometric and immunohistochemical analyses using conventional sequential techniques.
(§2) Histomorphometric analysis was performed blindly by two independent observers. The extent of glomerular injury was estimated, in PAS-stained sections, by determining the percentage of glomeruli with sclerotic lesions. The fraction of the renal cortical area occupied by interstitial tissue (%INT) was estimated in 25 consecutive microscopic fields of Masson-stained sections by a point-counting technique, at a final magnification of 200X, under a 144-point grid.
PRA and PAC were determined using commercially available radioimmunoassay kits (Renin Active IRMA and Aldosterone Active RIA, Beckman Coulter, Carlsbad, CA).

[2] = tested on: rats with 5/6 renal ablation (Nx); assay: Protocol 2 (late treatment), 5/6 renal ablation (Nx); format: in vivo, male Munich-Wistar rats
From the text: as §1
In Protocol 2, adult male Munich-Wistar rats were subjected to Nx as described earlier, and left untreated for two months. At this time, TCP and UalbV were assessed as described earlier. Rats with TCP ≤ 170 mmHg or UalbV ≤ 40 mg/day were excluded from the study. The remaining […] Nx rats were divided into four experimental groups: Nx + V (N = 14), untreated Nx rats; Nx + L (N = 15), receiving oral L, 50 mg/kg in drinking water; Nx + L + Eple (N = 14), receiving L and Eple (N = 14), 150 mg/kg/day; and Nx + L + Ly (N = 14), receiving L and Ly (20 mg/kg/day) as described before. A group of S rats (N = 16) was also included. All groups were followed for 90 days after treatments were started (150 days after nephrectomy), with monthly measurement of TCP and UalbV. At the end of this period, rats were anesthetized, blood was collected, and the renal tissue was perfusion-fixed and prepared for histomorphometric and immunohistochemical examination in the same manner as for Protocol 1.
as §2
Immunohistochemistry was performed on 4-μm-thick sections, mounted on glass slides precoated with 2% silane. Sections were deparaffinized and rehydrated by conventional techniques, then heated in citrate buffer for antigen retrieval and incubated overnight with the primary antibody at 4 °C (no antibody in negative control experiments). Primary antibodies used were: monoclonal mouse anti-rat ED-1 (Serotec, Oxford, UK); polyclonal rabbit anti-human AngII (Peninsula Laboratories, San Carlos, CA); and polyclonal rabbit anti-collagen I (Abcam, Cambridge, UK).
For ED-1 detection, sections were preincubated with 5% normal rabbit serum to prevent nonspecific binding, then incubated overnight at 4 °C with the primary antibody diluted in BSA at 1%. […]

[3] = tested on: Nx rats; assay: Preliminary experiments to determine the doses of Eple and Ly; format: in vivo
Protocol: Preliminary experiments were performed to exclude the possibility that any differences between Eple and Ly, both in monotherapy and as add-ons to L, were simply due to the use of inadequately low doses of either compound. In the first set of experiments, Nx rats received Eple at the recommended dose of 85 mg/kg, and at 150 mg/kg, higher than in most studies reported so far. […] Other Nx rats received Ly at either 12 mg/kg (the recommended dose) or 20 mg/kg. […] Based on these preliminary results, we set the doses of Eple and Ly at 150 mg/kg and 20 mg/kg, respectively.

[4] = molecular target: T1, human glucocorticoid receptor (hGR) (Homo sapiens, UniProt P04150); assay: Radioligand binding, hGR expressed in HEK293 cells; conditions: hGR expressed in HEK293 cells; read-out: Mean Ki ± SEM hGR*
T1 construct: expressed in transfected cells; host or cells: HEK293 cells
T1 sequence (P04150 1-777): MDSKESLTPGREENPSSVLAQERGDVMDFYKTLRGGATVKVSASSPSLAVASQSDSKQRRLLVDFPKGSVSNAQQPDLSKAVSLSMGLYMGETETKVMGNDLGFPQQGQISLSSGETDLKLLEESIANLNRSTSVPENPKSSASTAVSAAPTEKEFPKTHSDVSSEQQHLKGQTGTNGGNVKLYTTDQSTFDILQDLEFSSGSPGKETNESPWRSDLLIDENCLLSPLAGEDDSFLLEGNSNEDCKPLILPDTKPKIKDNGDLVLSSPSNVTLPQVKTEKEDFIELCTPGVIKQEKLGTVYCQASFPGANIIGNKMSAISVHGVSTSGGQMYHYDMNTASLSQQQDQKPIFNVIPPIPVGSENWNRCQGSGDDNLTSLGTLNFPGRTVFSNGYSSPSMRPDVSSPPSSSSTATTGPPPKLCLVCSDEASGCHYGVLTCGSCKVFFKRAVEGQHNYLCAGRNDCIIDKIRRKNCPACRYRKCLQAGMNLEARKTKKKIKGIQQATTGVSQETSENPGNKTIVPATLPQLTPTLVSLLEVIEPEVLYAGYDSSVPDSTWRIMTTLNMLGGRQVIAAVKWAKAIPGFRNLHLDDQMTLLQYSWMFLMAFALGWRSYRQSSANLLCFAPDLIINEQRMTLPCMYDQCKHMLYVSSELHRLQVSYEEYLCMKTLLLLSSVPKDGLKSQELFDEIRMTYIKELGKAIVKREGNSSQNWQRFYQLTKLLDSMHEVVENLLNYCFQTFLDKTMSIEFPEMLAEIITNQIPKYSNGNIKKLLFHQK
Protocol: Affinity of ligands to the soluble receptor was determined using vacuum filtration methods, preparing soluble receptors in 96-well Falcon polystyrene plates (BD Biosciences, Bedford, MA) in a total volume of 250 μl. The hMR Sf9 lysate (approximately 20–25 μg protein in 20 μl) was incubated in the absence or presence of competing ligands with 10 μl of [1,2,6,7-3H] […] Binding studies for ligands for hPR and hAR were determined using [1,2,6,7-3H(N)] Progesterone (specific activity 103 Ci/mmol, at a final concentration 0.5 nM; NET381, NEN/Perkin Elmer Life Sciences, Boston, MA) and [17α-methyl-3H] Mibolerone, an enzymaticaly stable analog of testosterone (specific activity 76.8 Ci/mmol, final concentration 0.3 nM; NET919, NEN), respectively. Specific binding of 3H-progesterone for hPR and 3H-mibolerone for hAR was determined in the presence and absence of 1 μM mifepristone. Inhibition constants (Ki), were determined either from the Cheng-Prusoff equation[32], or directly using non-linear regression curve fitting to a three-parameter one-site competitive equation. Ki values obtained from individual concentration response curves were reported as the mean ± SEM. Protein was measured using colorimetric detection and quantification of bicinchoninic acid (BCA Protein Assay, Pierce, Rockford, IL). Cos-7L cells were cotransfected with expression vectors and a reporter plasmid responsive to all 3 nuclear hormone receptors. pBluescript II SK (+) (Stratagene, San Diego, CA) was included as a source of carrier DNA. The number of repetitions of full concentration response curves (n) represents values from at least two independent experiments for each condition. Concentration response curves were analyzed statistically using a four-parameter logistic equation (Hill equation for sigmoid curves). Similar methodology was adopted for the human glucocorticoid receptor (hGR) expressed in HEK293 cells.

SMILES | Albumin excretion rate (UalbV) ([1]; 60 days after ablation, Eple 150 mg/kg/day, Ly 20 mg/kg/day oral) | Fractional cortical interstitial area ([1]; Day 60) | Left kidney weight corrected for body weight (renal hypertrophy) ([1]; Day 60) | Plasma aldosterone concentration (PAC) ([1]; Day 60) | Plasma K+ levels ([1]; Day 60, versus Nx + V) | Tail-cuff pressure (TCP) ([1]; Eple 150 mg/kg/day, Ly 20 mg/kg/day oral) | Plasma renin activity (PRA) ([2]; Day 150) | Maximal nontoxic dose, defined by stunting of body growth [3] [mg/kg] | Dose-response effect on the parameters studied ([3]; Eple 85 mg/kg vs 150 mg/kg) | PRA ([3]; Eple 150 mg/kg dose vs 85 mg/kg) | Body growth ([3]; Eple, dose higher than 150 mg/kg) | Density of interstitial AngII+ cells ([2]; Day 150) | Interstitial macrophage infiltration ([2]; Day 150) | Percent cortical area occupied by collagen I (interstitial fibrosis) ([2]; Day 150) | Percentage of glomeruli with sclerotic lesions (GS%) ([2]; Day 150) | Plasma aldosterone concentration (PAC) ([2]; Day 150) | Albumin excretion rate (UalbV) ([2]; treatment Day 60-150) | Tail-cuff pressure (TCP) ([2]; treatment Day 60-150, L 50 mg/kg, Eple 150 mg/kg/day, Ly 20 mg/kg/day) | Ki [4] [nM]
COC(=O)[C@@H]1CC2=CC(=O)CC[C@]2(C)[C@@]23O[C@@H]2C[C@@]2(C)[C@@H](CC[C@@]24CCC(=O)O4)[C@H]13 [Eplerenone, eplerenone, reference compound] | slightly, but not significantly, attenuated | only slightly attenuated | no effect on renal weight | exacerbated hyperaldosteronemia | not aggravated | partially prevented the elevation of TCP | significantly elevated compared to S, Nx and Nx + L | 150 | No dose-response effect was observed | slight increase in PRA | body growth limitation |  |  |  |  |  |  |  | 
CCCCc1nc(Cl)c(CO)n1Cc1ccc(-c2ccccc2-c2nn[nH]n2)cc1 [L, losartan] |  |  |  |  |  |  | normalized PRA |  |  |  |  | not significantly altered | numerically but not significantly reduced | failed to reduce significantly | partly prevented GS | significantly reduced PAC compared to S or Nx + V | prevented the progression of albuminuria | mitigated | 
CC(=O)S[C@@H]1CC2=CC(=O)CC[C@]2(C)[C@H]2CC[C@@]3(C)[C@@H](CC[C@@]34CCC(=O)O4)[C@H]12 [Spironolactone, spironolactone, reference compound] |  |  |  |  |  |  |  |  |  |  |  |  |  |  |  |  |  |  | 33 ± 7
